Measured values as given in patent publication US12195482B1 (Arcus Biosciences, Inc., priority 2022, dated 2025).

Experiments:
[1] = target: T1, recombinant human TYRO3 (Homo sapiens, UniProt Q06418); experiment: Biochemical potency, HTRF KinEASE-TK kinase assay; conditions: 1 nM TYRO3, 700 μM ATP
T1 construct: purchased Invitrogen
T1 sequence (Q06418 41-890): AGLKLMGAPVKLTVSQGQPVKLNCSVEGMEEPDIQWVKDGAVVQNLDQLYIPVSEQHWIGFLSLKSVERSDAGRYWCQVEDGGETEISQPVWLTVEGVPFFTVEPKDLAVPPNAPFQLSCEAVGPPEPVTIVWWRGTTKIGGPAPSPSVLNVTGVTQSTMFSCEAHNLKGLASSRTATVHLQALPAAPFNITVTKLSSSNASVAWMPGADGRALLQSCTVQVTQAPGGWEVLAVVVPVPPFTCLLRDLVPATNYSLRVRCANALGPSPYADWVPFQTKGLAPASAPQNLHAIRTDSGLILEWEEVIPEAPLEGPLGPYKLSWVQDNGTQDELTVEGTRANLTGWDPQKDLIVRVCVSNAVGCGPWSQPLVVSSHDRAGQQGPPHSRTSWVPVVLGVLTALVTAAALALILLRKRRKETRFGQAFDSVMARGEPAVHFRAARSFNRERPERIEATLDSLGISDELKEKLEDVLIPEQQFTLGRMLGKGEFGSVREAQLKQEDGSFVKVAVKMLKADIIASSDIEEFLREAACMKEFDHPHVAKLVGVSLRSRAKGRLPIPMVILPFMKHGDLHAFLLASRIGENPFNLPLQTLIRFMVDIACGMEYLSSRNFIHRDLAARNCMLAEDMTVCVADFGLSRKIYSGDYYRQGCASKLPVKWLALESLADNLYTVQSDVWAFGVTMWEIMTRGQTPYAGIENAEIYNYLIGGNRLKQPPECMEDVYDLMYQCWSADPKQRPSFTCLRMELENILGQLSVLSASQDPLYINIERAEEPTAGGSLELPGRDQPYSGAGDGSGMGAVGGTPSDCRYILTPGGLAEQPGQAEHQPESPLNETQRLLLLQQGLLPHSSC
Outline: (§1)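 Steps: compound plus kinase, 1 h RT; add ATP (700 µM final) and biotin-TK substrate (800 nM final); run 2 h RT; stop into streptavidin-XL665/anti-phospho cryptate detection mix, 1 h; read 665/620. AXL at 5 nM, TYRO3 and MER at 1 nM.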

[2] = target: T2, recombinant human MER (Homo sapiens, UniProt Q12866); experiment: Biochemical potency, HTRF KinEASE-TK kinase assay; conditions: 1 nM MER, 700 μM ATP
T2 construct: purchased Invitrogen
T2 sequence (Q12866 21-999): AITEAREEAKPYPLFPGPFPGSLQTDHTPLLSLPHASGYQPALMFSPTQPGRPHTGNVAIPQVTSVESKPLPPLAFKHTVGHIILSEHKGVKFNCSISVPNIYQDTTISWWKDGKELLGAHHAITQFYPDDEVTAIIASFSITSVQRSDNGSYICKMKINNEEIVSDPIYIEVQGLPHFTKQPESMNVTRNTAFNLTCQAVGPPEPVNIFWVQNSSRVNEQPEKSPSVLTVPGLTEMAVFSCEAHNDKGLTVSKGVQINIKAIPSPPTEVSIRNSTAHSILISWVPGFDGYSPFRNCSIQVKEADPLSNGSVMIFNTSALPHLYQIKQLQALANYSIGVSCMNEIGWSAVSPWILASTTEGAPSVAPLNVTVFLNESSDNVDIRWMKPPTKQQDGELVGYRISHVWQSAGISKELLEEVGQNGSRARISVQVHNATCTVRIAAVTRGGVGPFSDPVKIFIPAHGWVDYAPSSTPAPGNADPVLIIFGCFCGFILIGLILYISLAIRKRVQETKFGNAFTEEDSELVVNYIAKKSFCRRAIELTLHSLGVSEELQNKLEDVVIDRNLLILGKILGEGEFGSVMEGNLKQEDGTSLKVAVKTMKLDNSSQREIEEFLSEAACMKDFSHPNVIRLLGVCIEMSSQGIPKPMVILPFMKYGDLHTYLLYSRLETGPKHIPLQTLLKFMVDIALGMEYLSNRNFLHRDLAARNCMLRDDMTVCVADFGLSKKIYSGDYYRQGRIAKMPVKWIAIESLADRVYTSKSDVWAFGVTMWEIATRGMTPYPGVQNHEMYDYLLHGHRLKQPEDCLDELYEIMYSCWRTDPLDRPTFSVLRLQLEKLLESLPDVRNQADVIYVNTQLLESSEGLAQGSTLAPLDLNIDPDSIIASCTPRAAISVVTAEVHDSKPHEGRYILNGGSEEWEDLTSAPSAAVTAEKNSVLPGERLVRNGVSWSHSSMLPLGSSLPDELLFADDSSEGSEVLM
Outline: as §1

SMILES	IC50 [1] [nM]	IC50 [2] [nM]
COCCOc1cccnc1-c1ccc(-c2n[nH]c3ncc(-c4ccc5c(c4)CC[C@@H](N4C6COCC4C6)CC5)cc23)cc1 [Example 180, 6-[(7S)-2-(3-{4-[3-(2-Methoxyethoxy)pyridin-2-yl]phenyl}-1H-pyrazolo[3,4-b]pyridin-5-yl)-6,7,8,9-tetrahydro-5H-benzo[7]annulen-7-yl]-3-oxa-6-azabicyclo[3.1.1]heptane]	< 100	100 to 1000
Cn1ccnc1-c1ccc(-c2n[nH]c3ncc(-c4ccc5c(c4)CC[C@@H](N4C6COCC4C6)CC5)cc23)cc1 [Example 111, 6-[(7S)-2-{3-[4-(1-Methyl-1H-imidazol-2-yl)phenyl]-1H-pyrazolo[3,4-b]pyridin-5-yl}-6,7,8,9-tetrahydro-5H-benzo[7]annulen-7-yl]-3-oxa-6-azabicyclo[3.1.1]heptane]	< 100	< 100
O=C(c1cccnc1-c1ccc(-c2c[nH]c3ncc(-c4ccc5c(c4)CC[C@@H](N4C6COCC4C6)CC5)cc23)cc1)N1CCCC1 [Example 171, 6-[(7S)-2-(3-{4-[3-(Pyrrolidine-1-carbonyl)pyridin-2-yl]phenyl}-1H-pyrrolo[2,3-b]pyridin-5-yl)-6,7,8,9-tetrahydro-5H-benzo[7]annulen-7-yl]-3-oxa-6-azabicyclo[3.1.1]heptane]	100 to 1000	100 to 1000
CCc1cccnc1-c1ccc(-c2c[nH]c3ncc(-c4ccc5c(c4)CC[C@@H](N4C6COCC4C6)CC5)cc23)cc1 [Example 183, 6-[(7S)-2-{3-[4-(3-Ethylpyridin-2-yl)phenyl]-1H-pyrrolo[2,3-b]pyridin-5-yl}-6,7,8,9-tetrahydro-5H-benzo[7]annulen-7-yl]-3-oxa-6-azabicyclo[3.1.1]heptane]	< 100	100 to 1000
